Patent US8003312B2, “Multiplex cellular assays using detectable cell barcodes” (The Board of Trustees of the Leland Stanford Junior …, priority 2007, dated 2011)
Blank lines part the entries; values can stand above or below the compound they belong to.

Experiments:
[1] = system: Stat1 and ERK phosphorylation; assay: 96-well FCB drug screen in Jurkat cells: class of drug activity, pERK versus pStat1; type: cell-based, human; conditions: 20 μM, 45 min before stimulation with anti-CD3, anti-CD28 and IFN-γ for 5 min
Method: (a) Layout of screening experiment. Jurkat cells were treated with 70 known small-molecule kinase or phosphatase inhibitors (20 μM), Jak inhibitor I (2 μM) or U0126 (20 μM) for 45 min before stimulation with 5 μg/ml anti-CD3 and anti-CD28 and 10 ng/ml IFN-γ for 5 min. […] After fixation, cells were barcoded with Alexa 700-NHS (0, 0.06, 0.25 or 1 μg/ml) to delineate the four quadrants of the 96-well plate. Each quadrant was subdivided into four rows labeled with Pacific Blue-NHS (0, 0.04, 0.2 or 1 μg/ml) and six columns labeled with Alexa 488-NHS (0, 0.02, 0.06, 0.18, 0.5 or 1.5 μg/ml). […] (c) Heat map representation of percent inhibition of ERK and Stat1 phosphorylation. […] Wells with black triangles were excluded from the analysis due to high fluorescence of the drug in the phospho-protein fluorescence channels. […] (d) Two-dimensional plots of pERK versus pStat1.
For this purpose, we designed an FCB labeling scheme using three dyes to barcode 96 samples (FIG. 5). With this FCB setup, we screened a small-molecule library of 70 previously characterized kinase and phosphatase inhibitors for their ability to inhibit T-cell receptor-mediated ERK phosphorylation and/or Stat1 phosphorylation induced by IFN-γ (FIG. 5a). After addition of inhibitors, stimulation, fixation and barcoding, we combined all 96 samples into one sample and stained it with phycoerythrin-labeled antibodies against phosphorylated ERK (pERK PE) and pStat1 Alexa 647 antibodies (for a total of five fluorophores: three FCB reagents and two antibodies).
We cultured U937 cells, a monocytic lymphoma cell line, and Jurkat T cells in RPMI-1640 containing 10% fetal bovine serum, 100 U/ml penicillin, 100 μg/ml streptomycin, 1 mM L-glutamine (RPMI-10), and stimulated cells at a density of 10^6 cells/ml. […] We stimulated cells in 96-well deep block plates (2-ml capacity) by adding the appropriate cytokine or stimulus directly to the culture medium without prior starvation. After a 10-15-min incubation, we fixed cells with 1.6% formaldehyde for 10 min and then proceeded with the FCB phospho flow protocol below. Where inhibitors were used, we added these compounds 30 min before stimulation.
We performed phospho flow as previously described (ref. 4) with slight modifications to include FCB labeling. After formaldehyde fixation, we resuspended samples in 100% 20-25° C. methanol (typically 500 μl per 10^6 cells) containing the indicated concentration of Alexa Fluor or Pacific Blue succinimidyl esters, with each sample receiving a different concentration of fluorescent dye.

[2] = system: Stat1 and ERK phosphorylation; assay: Titration of four screening hits in Jurkat cells using six-sample FCB (pStat1, pERK); type: cell-based, human; conditions: 30 min before IFN-γ (10 ng/ml) and anti-CD3/28 (5 μg/ml each)
Method: FIG. 8. Detailed titration of four hits from Jurkat drug screening experiment (FIG. 5). a) Four compounds: Bay11-7082, Indirubin-3-monoxime, PP2, and ZM449829 were added to Jurkat cells at different concentrations for 30 min prior to stimulation with IFN-γ (10 ng/ml) and anti-CD3/28 (5 μg/ml each). The cells were fixed and permeabilized, then stained with pStat1 Ax647 and pERK Ax488 antibodies. Percent inhibition of phosphorylation was plotted against concentration of drugs and fitted with a logistic regression curve to obtain IC50 values. Numbers in the top right of each plot are the IC50 value in μM units. b) Lysates were prepared from the same cells used for phospho flow and analyzed by western blot with pStat1 and pERK antibodies. Drugs were applied at 20 μM (same concentration as initial screen) for western blot analysis.
Because a few of these hits were unexpected, we performed titration experiments using six-sample FCB on four of the compounds to validate the results (FIG. 8).
We calculated fold change of phosphorylation upon stimulation by dividing median fluorescence intensity (MFI) of stimulated samples by the MFI of unstimulated samples: FC=MFIstim/MFIunstim. For heat map analysis, FC was converted to log2 values to enhance visualization and so that samples showing no change have a value of zero. To measure drug activity, we calculated percent inhibition as follows: Percent Inhibition=1−((MFItreated ? MFIunstim)/(MFIstim ? MFIunstim)), where “treated” denotes drug treated (and stimulated) samples, “stim” denotes control stimulated (non drug treated) samples, and “unstim” denotes control unstimulated (non drug treated) samples. We calculated Z′-factor from control stimulated and unstimulated samples by the following: Z′-factor=1 ? ((3[…]SDstim 3[…]SDunstim)/(meanstim ? meanunstim)), where “SD” denotes standard deviation of the mean, and “mean” denotes the mean of either stimulated or unstimulated MFI values. Z′-factor is an indication of the robustness and suitability of an assay for high throughput screening, with values from 0.5 to 1 indicating an excellent assay, 0 to 0.5 indicating a usable assay, and less than 0 indicating the assay has too much noise or inadequate dynamic range.

Stat signaling = assay: Miniature drug screen and inhibitor titration in U937 cells: Stat signaling overall (pStat1, pStat3, pStat5); type: cell-based, human; conditions: for order of selectivity for the cytokine pathways: titration (Jak inhibitor I 0.005-5 μM, WHI-P154 0.1-100 μM), 30 min before stimulation
Method: (§1) FIG. 4. FCB of 36 samples increases throughput of phospho flow. (a) Efficient barcoding of 36 samples. U937 cells were left untreated or were stimulated with IFN-γ (10 ng/ml) for 10 min. Unstimulated and stimulated samples were added to a 96-well plate in an alternating pattern across each row and down each column and labeled with six concentrations of Pacific Blue-NHS (0, 0.15, 0.6, 2.5, 10 or 40 μg/ml) and/or Alexa 488-NHS (0, 0.07, 0.3, 1.3, 5 or 20 μg/ml). […] Reverse deconvolution (bottom panel) of all stimulated or unstimulated cells produced the expected checkerboard pattern. (b) Miniature drug screen and titration of inhibitors with FCB. U937 cells were treated with various drugs before stimulation with IFN-γ, IL-6 and GM-CSF (stimulation). WHI-P154 (WHI; 50 μM), PD98059 (PD; 20 μM), Jak inhibitor I (Jak-1; 5 μM), and wortmannin (Wort; 2 μM) were added to the cells 30 min before stimulation; samples were barcoded with Pacific Blue-NHS and simultaneously stained with pStat1 Alexa 488, pStat3 PE and pStat5 Alexa 647 (left three plots). Jak inhibitor I was added at 0.005, 0.05, 0.5 or 5 μM for 30 min before stimulation (middle). WHI-P154 was added at 0.1, 1, 10 or 100 μM for 30 min before stimulation (right). Non-drug-treated positive and negative controls are included within each FCB staining set, allowing for internal normalization of each staining cocktail.
We next applied the FCB platform to a drug screening profile, as a real-world example of how the technique could be used to enhance analysis throughput and reproducibility (FIG. 4b). Using Pacific Blue as the FCB reagent, we pretreated U937 cells with four small-molecule inhibitors: wortmannin (a PI-3 kinase inhibitor), Jak inhibitor I (an inhibitor of all Jak kinases), PD98059 (an MEK inhibitor) and WHI-P154 (a Jak3 inhibitor). We then stimulated the cells simultaneously with IFN-γ, IL-6 and granulocyte-monocyte colony-stimulating factor (GM-CSF) to induce pStat1, pStat3 and pStat5, respectively. […]

Stat1 phosphorylation = assay: Miniature drug screen by FCB phospho flow in U937 cells: IFN-γ-induced pStat1; type: cell-based, human; conditions: added 30 min before stimulation with IFN-γ, IL-6 and GM-CSF
Method: as §1, with “cocktail. […]” for “cocktail.”

Stat3 phosphorylation = assay: Miniature drug screen by FCB phospho flow in U937 cells: IL-6-induced pStat3; type: cell-based, human; conditions: added 30 min before stimulation with IFN-γ, IL-6 and GM-CSF
Method: as §1, with “cocktail. […]” for “cocktail.”

Stat5 phosphorylation = assay: Miniature drug screen by FCB phospho flow in U937 cells: GM-CSF-induced pStat5; type: cell-based, human; conditions: added 30 min before stimulation with IFN-γ, IL-6 and GM-CSF
Method: as §1, with “cocktail. […]” for “cocktail.”

[3] = system: pStat1 in CD4+ and CD4− T cells; assay: IFN-γ time course and dose titration in primary mouse splenocytes: pStat1 in T cells; type: cell-based
Method: (§2) FIG. 6. Use of FCB to label primary cell populations. […] (a) Mouse splenocytes were stimulated with different concentrations of IFN-γ across each row (0, 0.17, 0.5, 1.5, 4.5, 13, 40, 120, 370, 1,100, 3,300 or 10,000 pg/ml) for 0, 4, 8, 15, 30, 60, 120 or 180 min (each row representing a different time point). Cells were barcoded with three FCB markers (Alexa 700, Alexa 488 and Pacific Blue as in FIG. 5) during permeabilization, and stained with CD11b Cy5.5PerCP, B220 QD605, TCR PE, CD4 Cy7PE and pStat1 Alexa 647. Cell types were first gated based on surface markers to obtain CD11b-hi cells (neutrophils), B cells, CD4+ T cells and CD4-T cells. Each cell type was then deconvoluted to obtain the original 96-well plate layout. (b) Heat map representation showing the fold change in pStat1 levels on a log 2 scale across dose (from left to right) and time gradients (top to bottom). Yellow represents maximal induction, red indicates half-maximal induction, and black indicates no induction. Note that the scale for each cell type is different owing to different maximal induction of Stat1 phosphorylation.
(§3) Primary cells, and diseased cells from patients, are a limited resource and are not amenable to the majority of high-throughput screening systems. Therefore, we tested whether FCB could be applied to large-scale signaling profiling of heterogeneous populations of normal and/or diseased cells (refs. 13, 14). To this end, we stimulated primary mouse splenocytes with IFN-γ in a 96-well plate format, and asked whether different cell types show different kinetics and thresholds of responsiveness to IFN-γ. We performed a time course of stimulation across 11 different concentrations of the cytokine. Here, to discriminate cell types in addition to measuring phosphorylation levels, we stained the cells with pStat1 Alexa 647 and four surface marker antibodies: B220, TCR, CD4 and CD11b (for a total of eight colors: three FCB markers, four surface antibodies and one phospho antibody). We first gated cell types based on surface marker expression to obtain B cells, CD4+ T cells, CD4− T cells and CD11b-hi cells (neutrophils) 25 (FIG. 6a). We then deconvoluted each cell type to obtain the original plate layout.
We cultured U937 cells, a monocytic lymphoma cell line, and Jurkat T cells in RPMI-1640 containing 10% fetal bovine serum, 100 U/ml penicillin, 100 μg/ml streptomycin, 1 mM L-glutamine (RPMI-10), and stimulated cells at a density of 10^6 cells/ml. We obtained splenocytes from BALB/c mice by homogenization and resuspended them in RPMI-10 at 5 106 cells/ml. Splenocytes were rested for 2-3 h at 37° C. before stimulation13. We stimulated cells in 96-well deep block plates (2-ml capacity) by adding the appropriate cytokine or stimulus directly to the culture medium without prior starvation. […]

pStat1 in B cells = assay: IFN-γ time course and dose titration in primary mouse splenocytes: pStat1 in B cells; type: cell-based
Method: as §2
as §3, with “We first gated cell types based on surface marker expression to obtain B cells, CD4+ T cells, CD4− T cells and CD11b-hi cells (neutrophils) 25 (FIG. 6a). We then deconvoluted each cell type to obtain the original plate layout.” left out

[4] = system: pStat1 in CD11b-hi cells (neutrophils); assay: IFN-γ time course and dose titration in primary mouse splenocytes: pStat1 in neutrophils; type: cell-based
Method: as §2
as §3, with “We first gated cell types based on surface marker expression to obtain B cells, CD4+ T cells, CD4− T cells and CD11b-hi cells (neutrophils) 25 (FIG. 6a). We then deconvoluted each cell type to obtain the original plate layout.” left out

Compound: C=CC(=O)c1ccc2ccccc2c1 [ZM-449829]
- class of drug activity (selectivity, Stat1 versus ERK phosphorylation) [1]: inhibited both Stat1 and ERK phosphorylation potently
- selectivity between ERK and Stat1 phosphorylation [2]: little selectivity

Compound: O=C1Nc2ccccc2/C1=C1/Nc2ccccc2/C1=N\O [indirubin-3′-monooxime]
- class of drug activity (selectivity, Stat1 versus ERK phosphorylation) [1]: selectivity for inhibiting Stat1 phosphorylation
- selectivity for Stat1 (over ERK) phosphorylation [2]: extremely selective

Compound: COc1cccc(-c2cc(=O)c3ccccc3o2)c1N [PD98059]
- effects on Stat signaling (Stat signaling; 20 μM, added 30 min before stimulation with IFN-γ, IL-6 and GM-CSF): no or minor effects

Compound: COc1cc2ncnc(Nc3ccc(O)c(Br)c3)c2cc1OC [WHI-P154]
- inhibition of Stat1 phosphorylation (Stat1 phosphorylation; 50 μM): 80%
- inhibition of Stat3 phosphorylation (Stat3 phosphorylation; 50 μM): 100%
- inhibition of Stat5 phosphorylation (Stat5 phosphorylation; 50 μM): 40%
- order of selectivity for the cytokine pathways (Stat signaling): IL-6-Stat3>IFN-γ-Stat1>GM-CSF-Stat5

Compound: Jak inhibitor I
- inhibition of Stat1 phosphorylation (Stat1 phosphorylation; 5 μM): completely abrogating
- inhibition of Stat3 phosphorylation (Stat3 phosphorylation; 5 μM): completely abrogating
- inhibition of Stat5 phosphorylation (Stat5 phosphorylation; 5 μM): completely abrogating
- order of selectivity for the cytokine pathways (Stat signaling): IL-6-Stat3>IFN-γ-Stat1>GM-CSF-Stat5

Compound: N#CC(=C(/N)Sc1ccccc1N)/C(C#N)=C(\N)Sc1ccccc1N [U0126]
- class of drug activity (selectivity, Stat1 versus ERK phosphorylation) [1]: selectively inhibited ERK phosphorylation

Compound: CCCCCCCCCCCCC/C=C/[C@@H](O)[C@@H](N)CO [sphingosine]
- class of drug activity (selectivity, Stat1 versus ERK phosphorylation) [1]: selectively inhibited ERK phosphorylation

Compound: CC(C)(C)n1nc(-c2ccc(Cl)cc2)c2c(N)ncnc21 [PP2]
- class of drug activity (selectivity, Stat1 versus ERK phosphorylation) [1]: selectively inhibited ERK phosphorylation
- selectivity for ERK (over Stat1) phosphorylation [2]: extremely selective

- half-maximal response concentration (EC50), pStat1 induction ([3]; CD4+ T cells of mouse splenocytes): 50 pg/ml
- half-maximal response concentration (EC50), pStat1 induction ([3]; CD4− T cells of mouse splenocytes): 50 pg/ml
- EC50, pStat1 induction (pStat1 in B cells; B cells of mouse splenocytes): 220 pg/ml
- EC50, pStat1 induction ([4]; neutrophils (CD11b-hi cells) of mouse splenocytes): 400 pg/ml
Compound: IFN-γ: mouse IFN-γ from BD Pharmingen, cytokine used to stimulate primary mouse splenocytes
- maximum induction of pStat1 ([3]; CD4+/CD4− T cells of mouse splenocytes): 19-23 fold
- time of maximal pStat1 induction ([3]; T cells of mouse splenocytes): 30 min
- maximum induction of pStat1 (pStat1 in B cells): 19-23 fold
- time of maximal pStat1 induction (pStat1 in B cells): 8-30 min
- maximum induction of pStat1 [4]: 4.5 fold
- time of maximal pStat1 induction [4]: 30-60 min
